This passage reports cytotoxicity results from ChEMBL document CHEMBL3507680, “University of Dundee, Gates Library screen for HepG2 cell viability”.

The series in a line: Human HepG2 cell viability assay in 384 well format. Set-up: dose 125 nL, time 70.5 hour; concentration not given beside the values. Conditions: HepG2 cells, read-out: Inhibition. Format: toxicity, cell-based.
As for `COc1cc(C(=O)N2CCCS2(=O)=O)ccc1C`, the cytotoxicity at 70.5 h worked out at 18.4%.

With `CCn1cc(S(=O)(=O)NCC2(N3CCOCC3)CCCCC2)c(C)n1`, the cytotoxicity at 70.5 h was 28.1%. Next, `CC(Cn1cccn1)NC(=O)NCc1ccoc1` (centres undefined): -10.1%; `Cn1ncc2c(=O)[nH]c(CN3CCCC3c3ccsc3)nc21` (centres undefined): -7.44%. For `CN(C)CCOC1CC2(CCN(c3cnccn3)CC2)c2ccccc21` (centres undefined), the cytotoxicity at 70.5 h was 31.5%. With `CS(=O)(=O)N1CC2(CCN(C3CCCCC3)CC2)Cc2ccccc21` the figure was -7.63%; with `Cc1nnc(C(C)N2CCN(Cc3ccc4c(c3)OCO4)CC2)o1` (centres undefined), 16.9%.

As for `Cc1cc(Cc2cccc(C(F)(F)F)c2)cc(C2CCCNC2)n1` (centres undefined), the cytotoxicity at 70.5 h worked out at 2.41%. With `Cn1cc(C(=O)CC2CCCN2C(=O)c2ccc3[nH]ncc3c2)cn1` (centres undefined) the figure was 30%. With `Cc1nc(Nc2ncccn2)cc(C2CCN(CC(C)C)C2)n1` (centres undefined) the figure was -15.1%. Next, `Cc1nc(C)n(CC2CCCN(CCOc3cccc(C#N)c3)C2)n1` (centres undefined): 40.4%. In the case of `Cn1ncc2c1C(COCC1CC1)N(C(=O)c1ccncn1)CC2` (centres undefined), the cytotoxicity at 70.5 h was determined as 5.78%.

As for `OC(CN1CCN(Cc2ccccc2)CC1)C1CC1` (centres undefined), the cytotoxicity at 70.5 h was -10.4%. Next, `CCc1noc(C(C)N2CCN(CCOCC(F)(F)F)CC2)n1` (centres undefined): -2.37%; `N#Cc1ccnc(N2CCC(NCCN3CCOCC3)CC2)c1`: -2.14%. Next, `CN(CC(=O)NS(=O)(=O)c1ccsc1)Cc1ccccc1`: -6.37%; `CCN(CC)c1ccc2ccc(C(=O)N(CCOC)CCOC)cn12`: -0.14%.

For the molecule `CCCC(O)CNc1cncc(Br)c1` (centres undefined), the cytotoxicity at 70.5 h was -5.08%. Next, `O=C(c1ccc(Cl)cc1)N1CCC(N2CCCNC2=O)CC1`: -6.78%. Next, `Cn1c(SCC(O)COCc2ccccc2Cl)nnc1C1CC1` (centres undefined): -8.57%. In the case of `CN1CCC(N(CCc2ccccc2)Cc2noc(C3CC3)n2)CC1`, the cytotoxicity at 70.5 h was -12.8%. Next, `Cc1cccnc1CCNCC1(O)CCCN(CC2CCCCC2)C1=O` (centres undefined): 35.9%.

For the molecule `CCn1c(=O)n(CC)c2cc(S(N)(=O)=O)ccc21`, the cytotoxicity at 70.5 h is -2.33%. With `Cc1ccc(C(=O)N2CCC[C@@H]2Cn2nnc3c(O)nc(C)nc32)cc1` the figure was -2.37%; with `O=C(Nc1ccc(CCN2CCC(O)CC2)cc1)C1CCOCC1`, 9.76%; with `Cc1cccc(CN2CC3C[C@]3(NC(=O)c3ccco3)C2)n1` (some centres undefined), -4.13%. With `CCn1c(N)nc2cc(C(=O)N3CCCOCC3)cnc21` the figure was -6.56%; with `CCCS(=O)(=O)NC(C)C(=O)NCc1ccc(N2CCN(C)CC2)nc1` (centres undefined), -2.17%.

For the molecule `CCOC(=O)N1CCN(C(=O)C2CC(=O)N(c3ccccc3Br)C2)CC1` (centres undefined), the cytotoxicity at 70.5 h was -2.99%. With `c1ccc(NCc2cccc(OCCN3CCOCC3)c2)nc1` the figure was 6.42%; with `c1ccc2c(Cc3nnc([C@H]4CCNC4)o3)c[nH]c2c1`, -2.38%. With `O=S(=O)(NCc1ccc(S(=O)(=O)N2CCCC2)s1)c1cc(Cl)cc(Cl)c1` the figure was -21.3%; with `O=C([C@H]1C[C@H]2OCC[C@H]2N(CCc2ccccc2)C1)N1CCCO1`, -3.87%; with `Cc1cccc2cc(CN3CCC(N4CCCC4)CC3)c(=O)[nH]c12`, -6.75%. `Cc1c[nH]nc1C1CCCCN1C(=O)Cn1cc(Cl)cn1` (centres undefined): the cytotoxicity at 70.5 h is -15.8%. On to `CNc1cc(C2CCCN2C(=O)c2ccc3oc(=O)n(C)c3c2)ccn1` (centres undefined), for which the cytotoxicity at 70.5 h was -12.4%. Next, `COC[C@]12COC[C@H]1CN(S(=O)(=O)c1cccnc1)C2`: -13%; `Cc1ccc(CN2CC[C@@H](NC(=O)c3cccnc3)[C@H](O)C2)o1`: -13.3%; `Cc1ccc2c(c1)N(C(=O)c1c[nH]c(C)cc1=O)CC(C)O2` (centres undefined): 28.6%.
